Where “and” joins values, the source holds several entries; their conditions need not be identical. Identical values can stand only once.

For experiment [1], the system named is A549 cells. The experiment in a line: CellRox deep red assay for tBuOOH-induced ROS. Conditions: for tBuOOH-induced ROS (CellRox), relative to DMSO, Mean / tBuOOH-induced ROS (CellRox), relative to DMSO, replicate values: sheet 4c, DMSO mean = 1.
Method: A549 cells were maintained in DMEM (Sigma) supplemented with 10% fetal bovine serum (Pan Biotech). […] The CellRox assay was performed according to the product guidelines (ThermoFisher). Briefly, cells were treated with lipoic acid, N-acetyl-cysteine (NAC), or vector control (DMSO) for 1 h, followed by a 2 h treatment with 200 µM tert-butyl hydroperoxide, and then stained with 5 µM CellRox Deep Red for 1 h. Cells were washed twice with FluoroBrite DMEM (ThermoFisher) supplemented with 10% FBS before imaging. CellRox Deep Red signal intensity was measured on a Leica DMI 6000 B epifluorescent microscope with a Cy5 filter set. […] Significance was calculated by ANOVA with a post hoc Dunnett’s multiple comparisons test against the DMSO control (GraphPad).
The target of another experiment is T1, HDAC10 (Homo sapiens, UniProt Q969S8).
T1 construct: host or cells: HeLa mono-clones, stably expressing
T1 sequence (Q969S8 1-669): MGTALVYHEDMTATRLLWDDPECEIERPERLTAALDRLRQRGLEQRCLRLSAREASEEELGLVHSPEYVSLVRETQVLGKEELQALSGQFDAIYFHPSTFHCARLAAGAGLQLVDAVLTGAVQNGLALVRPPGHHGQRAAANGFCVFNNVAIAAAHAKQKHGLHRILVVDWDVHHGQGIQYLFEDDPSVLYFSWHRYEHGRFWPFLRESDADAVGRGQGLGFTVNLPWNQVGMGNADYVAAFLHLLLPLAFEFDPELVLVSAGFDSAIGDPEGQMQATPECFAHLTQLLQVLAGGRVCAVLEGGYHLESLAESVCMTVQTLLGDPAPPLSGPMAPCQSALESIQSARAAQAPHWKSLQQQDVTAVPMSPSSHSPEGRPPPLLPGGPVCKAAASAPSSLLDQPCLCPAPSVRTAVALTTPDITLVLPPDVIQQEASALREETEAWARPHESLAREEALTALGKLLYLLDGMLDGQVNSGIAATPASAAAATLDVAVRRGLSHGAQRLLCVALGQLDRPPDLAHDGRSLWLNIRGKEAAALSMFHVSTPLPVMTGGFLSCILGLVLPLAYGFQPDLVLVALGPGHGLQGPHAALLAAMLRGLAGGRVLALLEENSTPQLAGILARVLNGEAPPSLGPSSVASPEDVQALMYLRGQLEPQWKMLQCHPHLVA
Briefly: NanoBRET intracellular target engagement assay. It counts as cell-based. To be noted: HeLa cells. As to the method:
For the production of transfected HeLa mono-clones stably expressing HDAC-nanoBRET fusion proteins of HDAC10 and HDAC6-catalytic domain 2 (HDAC6CD2), plasmids expressing a fusion of HDAC10 with nanoluciferase were obtained from Promega (N2170). HeLa cells (0.75 × 10^6) were seeded in a 6 cm dish and were transfected with a mix of 10 μg plasmid and 3 μL Fugene in 200 μL OptiMEM after 24 h. The intracellular target engagement assay on HDAC10 and HDAC6CD2 was performed using the NanoBRET™ Target Engagement Intracellular HDAC Assay (Promega N2081 and N2090) as described by the kit manufacturer in a 96-well plate (Corning 3600) format with 2 × 10^4 cells per well and a tracer concentration of 0.3 μM. Inhibitors were dosed with a D300e Digital Dispenser (Tecan). DMSO concentrations were normalized to 0.5% for all wells. After dosing, assay plates were shaken at 800 rpm and incubated at 37 °C for 2 h followed by measurement of 450 nm and 650 nm luminescence (80 nm bandwidth) at room temperature with a CLARIOstar (BMG Labtech) plate reader 2 min after NanoLuc substrate addition.

Experiment [2] relates to A549 cells. Briefly: CellRox deep red assay for ROS quantification (with or without arsenite). It counts as cell-based. Conditions: sheet 4d.

On to `O=C(O)CCCCC1CCSS1` (racemic) [(R/S)-LA, (R/S)-lipoic acid], for which the “levels of ROS (oxidative stress) relative to control” value in the experiment on A549 cells [1] (100 µM drug pre-treatment, 2 h 200 µM tBuOOH) was 60–70%. The “tBuOOH-induced ROS (CellRox), relative to DMSO, Mean” value in the experiment on A549 cells [1] ((R/S)-LA 10 ?M) came to 0.7284; in the experiment on A549 cells [1] ((R/S)-LA 30 ?M), 0.7039; in the experiment with A549 cells [1] ((R/S)-LA 100 ?M), 0.6085; in the experiment with A549 cells [1] ((R/S)-LA 300 ?M) it was 0.7233. For the same molecule, the “tBuOOH-induced ROS (CellRox), relative to DMSO, replicate values” in the experiment with A549 cells [1] ((R/S)-LA 10 ?M) is 0.6361 and 0.7994 and 0.7496; in the experiment with A549 cells [1] ((R/S)-LA 30 ?M) it was 0.5919 and 0.6862 and 0.8337; in the experiment with A549 cells [1] ((R/S)-LA 100 ?M), 0.608 and 0.6603 and 0.5572; in the experiment with A549 cells [1] ((R/S)-LA 300 ?M), 0.909 and 0.609 and 0.652.

For the molecule `NC(=O)CCCCC1CCSS1` (racemic) [(R/S)-LM, (R/S)-lipoamide], on HDAC10, the “intracellular binding to HDAC10” value is “dose-dependent intracellular binding”. Further, the “ROS (CellRox), relative to DMSO -Ars., Mean” value was determined as 1.413 with A549 cells [2] (R/S-LM +Ars) and 1.131 in the experiment on A549 cells [2] (R/S-LM -Ars). The “ROS (CellRox), relative to DMSO -Ars., replicate values” in the experiment with A549 cells [2] (R/S-LM +Ars) was 1.506 and 1.194 and 1.54; in the experiment on A549 cells [2] (R/S-LM -Ars), 1.077 and 0.9596 and 1.357.

The values are drawn from article PMC10272112 (Nature Communications, 2023).
